Earlier results on 1 compound are cited in patent US20050037089A1, “Method for promoting bone growth” (priority 2003, published 2005).

For the compound `CC[C@H](C)[C@H](NC(=O)[C@H](CCC(=O)O)NC(=O)[C@H](CO)NC(=O)[C@@H](NC(=O)[C@@H](N)CO)C(C)C)C(=O)N[C@@H](CCC(N)=O)C(=O)N[C@@H](CC(C)C)C(=O)N[C@@H](CCSC)C(=O)N[C@@H](Cc1cnc[nH]1)C(=O)N[C@@H](CC(N)=O)C(=O)N[C@@H](CC(C)C)C(=O)NCC(=O)N[C@@H](CCCCN)C(=O)N[C@@H](Cc1cnc[nH]1)C(=O)N[C@@H](CC(C)C)C(=O)N[C@@H](CC(N)=O)C(=O)N[C@@H](CO)C(=O)N[C@@H](CCSC)C(=O)N[C@@H](CCC(=O)O)C(=O)N[C@@H](CCCN=C(N)N)C(=O)N[C@H](C(=O)N[C@@H](CCC(=O)O)C(=O)N[C@@H](Cc1c[nH]c2ccccc12)C(=O)N[C@@H](CC(C)C)C(=O)N[C@@H](CCCN=C(N)N)C(=O)N[C@@H](CCCCN)C(=O)N[C@@H](CCCCN)C(=O)N[C@@H](CC(C)C)C(=O)N[C@@H](CCC(N)=O)C(=O)N[C@@H](CC(=O)O)C(=O)N[C@H](C(=O)N[C@@H](Cc1cnc[nH]1)C(=O)N[C@@H](CC(N)=O)C(=O)N[C@@H](Cc1ccccc1)C(=O)O)C(C)C)C(C)C` [hPTH(1-34)], the bone formation result (patients with osteoporosis, subcutaneous administration) is listed as “increase bone formation”. For the same compound, for the setting “postmenopausal women, daily subcutaneous administration of 20 μg or 40 μg”, the bone density result is reported as “increase bone density”.
